Results published in PubChem BioAssay AID1996.
Converted amounts (≈) assume the structure as drawn.

Conditions: buffer; pH 7.4; 200.0 µM

SMILES	solubility kinetic [µg/mL]
CCC(NC(=O)c1ccncc1)c1ccccc1 (stereo not given)	> 36
CCCc1cc(=O)[nH]c(SCC(=O)NCCN2C(=O)CSC2=O)n1	> 55.6
CN(CCOC(=O)c1ccc2c(c1)OCO2)C(C)(C)C.Cl	41.7
CC1=CC(C)C(COC(=O)CN2CCCCC2)C(C)C1 (stereo not given)	8.4 (≈ 30.1 µM)
CCOC(=O)c1cc([N+](=O)[O-])sc1N	4.6 (≈ 21.3 µM)
O=C1Cc2ccccc2C(c2ccc(Cl)cc2Cl)N1 (stereo not given)	3.1 (≈ 10.6 µM)
CCC1CN(C(=O)NCc2ccc(C)cc2)c2ccccc2O1 (stereo not given)	20.8 (≈ 67 µM)
O=S(=O)(Nc1ccccc1O)c1ccc(Cl)nc1	35.6 (≈ 125 µM)
N#C/C(=C\c1cc(Br)ccc1F)C(=O)NC1CC1	13.1 (≈ 42.4 µM)
CCOC(=O)Nc1ccc2c(c1)N(C(=O)CCN1CCOCC1)c1ccccc1S2	> 64.1
CCN(CC)S(=O)(=O)c1cccc(-c2csc(C)n2)c1	37.8 (≈ 122 µM)
CC(=O)Nc1cccc(OCC(=O)NCCC2=CCCCC2)c1	> 47.5
CCN(C(=O)CN1CCCC(C)C1)c1c(N)n(Cc2ccccc2)c(=O)[nH]c1=O (stereo not given)	> 59.9
CCOc1ccc2[nH]c3c(NCCCOC)ncnc3c2c1	36.4 (≈ 121 µM)
O=S(=O)(Nc1ccncc1)c1cc(Cl)ccc1Cl	21.2 (≈ 69.9 µM)
COc1ccccc1CNS(=O)(=O)c1cc(C(=O)NCC2CCCO2)c(Cl)cc1Cl (stereo not given)	> 71
COCCCNC(=O)c1c(N)n(Cc2ccco2)c2nc3ccccc3nc12	4.8 (≈ 12.7 µM)
COc1ccc(OC)c(NC(=O)c2cc3c(cc2Cl)N2CCCCCC2=NS3(=O)=O)c1	3.7 (≈ 7.98 µM)
CCC(=O)Nc1ccc(OCC2CCCO2)cc1 (stereo not given)	35.6 (≈ 143 µM)
CCn1c(=O)c([N+](=O)[O-])c(NCC2CCCO2)c2ccccc21 (stereo not given)	47.5 (≈ 150 µM)

SMILES	solubility kinetic [µg/mL]
CC(C(=O)NCC1CCCCC1)N(C)Cc1ccc(Cl)cc1 (stereo not given)	19.5 (≈ 60.4 µM)
CCOc1ccc(C(=O)CCC(=O)Nc2ncccc2O)cc1	> 47.2
CCOC(=O)Cc1csc(NC(=O)c2c(C)noc2C)n1	> 46.4
CC(C)CNC(=O)CN1c2cccc3cccc(c23)S1(=O)=O	> 47.8
Cc1ccccc1N1CCN(Cc2ccc(Br)o2)CC1	4.3 (≈ 12.8 µM)
Cc1ccc(C(=O)NCCNC(=O)COc2ccc(C)c(C)c2)cn1	49.2 (≈ 144 µM)
CC(=O)N1C(C(=O)O)Cc2c([nH]c3ccccc23)C1(C)C (stereo not given)	> 42.9
COC(=O)Cc1c(O)ccn(CCc2c[nH]c3ccccc23)c1=O	> 49
CN(C)CCN=Cc1c(O)n(Cc2ccc3c(c2)OCO3)c(=S)[nH]c1=O	55.8 (≈ 148 µM)
C=CCN(CC=C)C(=S)NC(=O)c1ccc(OC)cc1	> 43.6
CCN(CC(=O)N1CCCC1)S(=O)(=O)c1ccc(F)cc1	44.1 (≈ 140 µM)
CC(C)NC(=O)CSc1ncccc1-c1nc2ccccc2[nH]1	46.9 (≈ 144 µM)
CCOC(=O)c1c(C)[nH]c(C)c1S(=O)(=O)N1CCOCC1	> 47.5
CCOC(=O)c1cnc2cc(F)c(F)cc2c1N1CCN(C)CC1	30.7 (≈ 91.5 µM)
O/C=c1\ccc2cccc3nc(C(F)(F)F)nc1c23	5.5 (≈ 20.8 µM)
Clc1ccc(-c2nc(NCCCN3CCOCC3)c3ccccc3n2)cc1	1.4 (≈ 3.66 µM)
COc1cccc(CC(=O)Nc2ccc(S(=O)(=O)N3CCCCC3)cc2)c1	10.1 (≈ 26 µM)
COCCCNC(=O)C(C)N1c2cccc3cccc(c23)S1(=O)=O (stereo not given)	50.2 (≈ 144 µM)
CCNC(=O)C(=O)Nc1cc2c3c(c1)CCC(=O)N3CCC2	> 45.2
O=CN1CCN(c2c([N+](=O)[O-])c(=O)oc3ccccc23)CC1	> 45.5

SMILES	solubility kinetic [µg/mL]
COc1cc(OC)cc(C(=O)NC(C(=O)N2CCC2)C(C)C)c1 (stereo not given)	> 48.1
COc1cccc2cc(C(=O)NC3CC4CCC3C4)oc12 (stereo not given)	31.6 (≈ 111 µM)
CC1CCC2(CC1)NC(=O)N(CC(=O)Nc1ccc3c(c1)OCO3)C2=O (stereo not given)	15.6 (≈ 43.4 µM)
Cc1cccc(C(=O)N/C(=C\c2ccco2)C(=O)N2CCCC2)c1	> 48.7
COc1ccccc1Oc1nc([N+](=O)[O-])nn1CC(N)=O	> 44
CCOC(=O)C1CCN(CCC(=O)Nc2ccc(C)cc2)CC1	> 47.8
O=C(c1ccccc1)c1ccccc1N1C(=O)C=CC1=O	> 41.6
Cc1nc([N+](=O)[O-])cn1CC(=O)c1ccccc1	31.5 (≈ 128 µM)
CCOC(=O)COc1nc(C)cc(C(F)(F)F)c1C#N	36 (≈ 125 µM)
CNc1nc(NCc2ccccc2)c2ccccc2n1.Cl	37
O=C(O)c1cc(-c2ccccc2)nc(-c2ccccc2)c1	> 41.3
c1ccc(-c2cccs2)nc1	1.9 (≈ 11.8 µM)
CCc1ccc(NC(=O)CSc2ccccn2)cc1	33.7 (≈ 124 µM)
Cc1cc2ccccn2c1C(=O)c1ccc(S(=O)(=O)N(C)C)cc1	1.1 (≈ 3.21 µM)
Cc1c([N+](=O)[O-])c([N+](=O)[O-])nn1CC(=O)N1CCOCC1	> 44.9
O=[N+]([O-])c1ccccc1S(=O)(=O)Nc1cccc2cccnc12	1.8 (≈ 5.47 µM)
CCCCN1C(=O)C2(OCCCO2)c2cccc(C)c21	25.1 (≈ 91.2 µM)
CC1CCN(C(=S)c2ccc(N(C)C)cc2)CC1	5.4 (≈ 20.6 µM)
O=[N+]([O-])c1cccc(NC(=S)N2CCN(c3ccccn3)CC2)c1	1.2 (≈ 3.49 µM)
NC1=NC(c2cccnc2)n2c(nc3ccccc32)N1 (stereo not given)	> 39.6
